Results reported in patent publication US20210323950A1, “HERBICIDALLY ACTIVE BICYCLIC BENZOYLPYRAZOLES” (Bayer Aktiengesellschaft, priority 2018, published 2021).

Tests used:
Assay type in all cases: in vivo
Setaria viridis (SETVI) [1] = assay: Pre-emergence herbicidal action against SETVI; settings: 80 g/ha, scored visually after about 3 weeks vs untreated controls
Excerpt: (§1) SETVI: Setaria viridis 1. Pre-Emergence Herbicidal Action and Crop Plant Compatibility Seeds of monocotyledonous and dicotyledonous weed plants and crop plants are placed in plastic or organic planting pots and covered with soil. The compounds of the invention, formulated in the form of wettable powders (WP) or as emulsion concentrates (EC), are then applied onto the surface of the covering soil as aqueous suspension or emulsion with addition of 0.5% additive at a water application rate of […] (converted). After the treatment, the pots are placed in a greenhouse and kept under good growth conditions for the trial plants. After about 3 weeks, the effect of the preparations is scored visually in comparison with untreated controls as percentages. The tables below show the herbicidal activity of numerous compounds according to the invention against important harmful plants. For example, 100% activity=the plants have died, 0% activity=like control plants.

[2] = test system: Abutilon theophrasti (ABUTH); assay: Pre-emergence herbicidal action against ABUTH; settings: 80 g/ha, scored visually after about 3 weeks vs untreated controls
Excerpt: as §1, with “ABUTH: Abutilon theophrasti” for “SETVI: Setaria viridis”

[3] = test system: Amaranthus retroflexus (AMARE); assay: Pre-emergence herbicidal action against AMARE; settings: 80 g/ha, scored visually after about 3 weeks vs untreated controls
Excerpt: as §1, with “AMARE: Amaranthus retroflexus” for “SETVI: Setaria viridis”

Stellaria media (STEME) [4] = assay: Pre-emergence herbicidal action against STEME; settings: 80 g/ha, scored visually after about 3 weeks vs untreated controls
Excerpt: as §1, with “STEME: Stellaria media” for “SETVI: Setaria viridis”

[5] = test system: Amaranthus retroflexus (AMARE); assay: Post-emergence herbicidal action against AMARE; settings: 20 g/ha, post-emergence at one-leaf stage, rated visually after about 3 weeks vs untreated controls
Method: (§2) AMARE: Amaranthus retroflexus 2. Post-Emergence Herbicidal Action and Crop Plant Compatibility Seeds of monocotyledonous and dicotyledonous weeds and crop plants are placed in sandy loam in plastic or organic planting pots, covered with soil and cultivated in a greenhouse under controlled growth conditions. 2 to 3 weeks after sowing, the test plants are treated at the one-leaf stage. The compounds of the invention, formulated in the form of wettable powders (WP) or as emulsion concentrates (EC), are then sprayed onto the green parts of the plants as aqueous suspension or emulsion with addition of 0.5% additive at a water application rate of […] (converted). After the test plants had been kept in the greenhouse under optimum growth conditions for about 3 weeks, the activity of the preparations is rated visually in comparison to untreated controls. The tables below show the herbicidal activity of numerous compounds according to the invention against important harmful plants. For example, 100% activity=the plants have died, 0% activity=like control plants.

Stellaria media (STEME) [6] = assay: Post-emergence herbicidal action against STEME; settings: 20 g/ha, post-emergence at one-leaf stage, rated visually after about 3 weeks vs untreated controls
Method: as §2, with “STEME: Stellaria media” for “AMARE: Amaranthus retroflexus”

Viola tricolor (VIOTR) = assay: Pre-emergence herbicidal action against VIOTR; settings: 80 g/ha, scored visually after about 3 weeks vs untreated controls
Excerpt: as §1, with “VIOTR: Viola tricolor” for “SETVI: Setaria viridis”

Setaria viridis (SETVI) [7] = assay: Post-emergence herbicidal action against SETVI; settings: 20 g/ha, post-emergence at one-leaf stage, rated visually after about 3 weeks vs untreated controls
Method: as §2, with “SETVI: Setaria viridis” for “AMARE: Amaranthus retroflexus”

[8] = test system: Echinochloa crus-galli (ECHCG); assay: Pre-emergence herbicidal action against ECHCG; settings: 80 g/ha, scored visually after about 3 weeks vs untreated controls
Excerpt: as §1, with “ECHCG: Echinochloa crus-galli” for “SETVI: Setaria viridis”

[9] = test system: Echinochloa crus-galli (ECHCG); assay: Post-emergence herbicidal action against ECHCG; settings: 20 g/ha, post-emergence at one-leaf stage, rated visually after about 3 weeks vs untreated controls
Method: as §2, with “ECHCG: Echinochloa crus-galli” for “AMARE: Amaranthus retroflexus”

Cc1nn(C)c(O)c1C(=O)c1ccc(C(F)(F)F)c2c1OCS2 [Example 1-23]
Pre-emergence action against SETVI (Setaria viridis (SETVI) [1]): 100%
Pre-emergence action against ABUTH [2]: 100%
Pre-emergence action against AMARE [3]: 80%
Pre-emergence action against STEME (Stellaria media (STEME) [4]): 100%
Post-emergence action against AMARE [5]: 100%
Post-emergence action against STEME (Stellaria media (STEME) [6]): 80%

Cn1ncc(C(=O)c2ccc(C(F)(F)F)c3c2SCS3)c1O [Example 1-58]
Pre-emergence action against AMARE [3]: 80%
Pre-emergence action against STEME (Stellaria media (STEME) [4]): 90%
Pre-emergence action against VIOTR (Viola tricolor (VIOTR)): 100%
Post-emergence action against SETVI (Setaria viridis (SETVI) [7]): 80%
Post-emergence action against AMARE [5]: 90%
Post-emergence action against STEME (Stellaria media (STEME) [6]): 80%

Cn1ncc(C(=O)c2ccc(C(F)(F)F)c3c2SCCS3)c1O [Example 1-60]
Pre-emergence action against AMARE [3]: 100%
Pre-emergence action against STEME (Stellaria media (STEME) [4]): 90%
Pre-emergence action against VIOTR (Viola tricolor (VIOTR)): 100%
Post-emergence action against AMARE [5]: 90%
Post-emergence action against STEME (Stellaria media (STEME) [6]): 80%

CCn1ncc(C(=O)c2ccc(C(F)(F)F)c3c2SCCS3)c1O [Example 1-65]
Pre-emergence action against ECHCG [8]: 80%
Pre-emergence action against SETVI (Setaria viridis (SETVI) [1]): 90%
Pre-emergence action against AMARE [3]: 100%
Pre-emergence action against STEME (Stellaria media (STEME) [4]): 100%
Pre-emergence action against VIOTR (Viola tricolor (VIOTR)): 100%
Post-emergence action against ECHCG [9]: 80%
Post-emergence action against SETVI (Setaria viridis (SETVI) [7]): 100%
Post-emergence action against AMARE [5]: 80%

Cc1nn(C)c(O)c1C(=O)c1ccc(C(F)(F)F)c2c1SCCS2 [Example 1-70]
Pre-emergence action against AMARE [3]: 100%
Pre-emergence action against STEME (Stellaria media (STEME) [4]): 100%
Pre-emergence action against VIOTR (Viola tricolor (VIOTR)): 90%
Post-emergence action against AMARE [5]: 90%
Post-emergence action against STEME (Stellaria media (STEME) [6]): 80%

CCn1ncc(C(=O)c2ccc(C(F)(F)F)c3c2SCS3(=O)=O)c1O [Example 1-89]
Pre-emergence action against ABUTH [2]: 90%
Pre-emergence action against AMARE [3]: 100%
Pre-emergence action against STEME (Stellaria media (STEME) [4]): 100%
Post-emergence action against AMARE [5]: 90%
Post-emergence action against STEME (Stellaria media (STEME) [6]): 80%

Cc1nn(C)c(O)c1C(=O)c1ccc(C(F)(F)F)c2c1SCS2(=O)=O [Example 1-93]
Pre-emergence action against AMARE [3]: 100%
Pre-emergence action against STEME (Stellaria media (STEME) [4]): 90%
Post-emergence action against ECHCG [9]: 80%
Post-emergence action against AMARE [5]: 90%

Cn1nc(C2CC2)c(C(=O)c2ccc(C(F)(F)F)c3c2OCS3)c1O [Example 1-112]
Pre-emergence action against AMARE [3]: 100%
Pre-emergence action against STEME (Stellaria media (STEME) [4]): 90%
Pre-emergence action against VIOTR (Viola tricolor (VIOTR)): 90%
Post-emergence action against ECHCG [9]: 80%
Post-emergence action against AMARE [5]: 100%
Post-emergence action against STEME (Stellaria media (STEME) [6]): 80%

Cn1ncc(C(=O)c2ccc(C(F)(F)C(F)(F)F)c3c2OCS3(=O)=O)c1O [Example 1-130]
Pre-emergence action against AMARE [3]: 100%
Pre-emergence action against STEME (Stellaria media (STEME) [4]): 100%
Post-emergence action against AMARE [5]: 100%
Post-emergence action against STEME (Stellaria media (STEME) [6]): 90%

CCn1ncc(C(=O)c2ccc(C(F)(F)C(F)(F)F)c3c2OCS3)c1O [Example 1-131]
Pre-emergence action against SETVI (Setaria viridis (SETVI) [1]): 100%
Pre-emergence action against ABUTH [2]: 100%
Pre-emergence action against AMARE [3]: 100%
Pre-emergence action against STEME (Stellaria media (STEME) [4]): 90%
Pre-emergence action against VIOTR (Viola tricolor (VIOTR)): 100%
Post-emergence action against ECHCG [9]: 80%
Post-emergence action against SETVI (Setaria viridis (SETVI) [7]): 80%
